{
  "source": "patent US12539323B2",
  "about": "“Anti-psychotic composition and treatment methods” (priority 2017, dated 2026)",
  "origin": "cited, not measured here",
  "system": "symptoms of schizophrenia",
  "details": "pooled meta-analysis of celecoxib and aspirin, eight studies",
  "data": [
    {"molecule": "CC(=O)Oc1ccccc1C(=O)O", "note": "[aspirin]", "values": [
      {"measurement": "Effect on negative symptoms of schizophrenia", "result": "no benefit"},
      {"measurement": "Hedges' g, positive symptoms", "result": "−0.189"},
      {"measurement": "Hedges' g, total symptoms", "setting": "trend level", "result": "−0.236"}
    ]}
  ]
}
